Assay in all cases: KINOMEscan (ScanMAX) kinase profiling
Format in all cases: binding

Test [1] concerns the target T1, panel of 468 kinases (Homo sapiens, UniProt Q6ZN16).
T1 construct: purchased KINOMEscan (ScanMAX) service
T1 sequence (Q6ZN16 1-1313): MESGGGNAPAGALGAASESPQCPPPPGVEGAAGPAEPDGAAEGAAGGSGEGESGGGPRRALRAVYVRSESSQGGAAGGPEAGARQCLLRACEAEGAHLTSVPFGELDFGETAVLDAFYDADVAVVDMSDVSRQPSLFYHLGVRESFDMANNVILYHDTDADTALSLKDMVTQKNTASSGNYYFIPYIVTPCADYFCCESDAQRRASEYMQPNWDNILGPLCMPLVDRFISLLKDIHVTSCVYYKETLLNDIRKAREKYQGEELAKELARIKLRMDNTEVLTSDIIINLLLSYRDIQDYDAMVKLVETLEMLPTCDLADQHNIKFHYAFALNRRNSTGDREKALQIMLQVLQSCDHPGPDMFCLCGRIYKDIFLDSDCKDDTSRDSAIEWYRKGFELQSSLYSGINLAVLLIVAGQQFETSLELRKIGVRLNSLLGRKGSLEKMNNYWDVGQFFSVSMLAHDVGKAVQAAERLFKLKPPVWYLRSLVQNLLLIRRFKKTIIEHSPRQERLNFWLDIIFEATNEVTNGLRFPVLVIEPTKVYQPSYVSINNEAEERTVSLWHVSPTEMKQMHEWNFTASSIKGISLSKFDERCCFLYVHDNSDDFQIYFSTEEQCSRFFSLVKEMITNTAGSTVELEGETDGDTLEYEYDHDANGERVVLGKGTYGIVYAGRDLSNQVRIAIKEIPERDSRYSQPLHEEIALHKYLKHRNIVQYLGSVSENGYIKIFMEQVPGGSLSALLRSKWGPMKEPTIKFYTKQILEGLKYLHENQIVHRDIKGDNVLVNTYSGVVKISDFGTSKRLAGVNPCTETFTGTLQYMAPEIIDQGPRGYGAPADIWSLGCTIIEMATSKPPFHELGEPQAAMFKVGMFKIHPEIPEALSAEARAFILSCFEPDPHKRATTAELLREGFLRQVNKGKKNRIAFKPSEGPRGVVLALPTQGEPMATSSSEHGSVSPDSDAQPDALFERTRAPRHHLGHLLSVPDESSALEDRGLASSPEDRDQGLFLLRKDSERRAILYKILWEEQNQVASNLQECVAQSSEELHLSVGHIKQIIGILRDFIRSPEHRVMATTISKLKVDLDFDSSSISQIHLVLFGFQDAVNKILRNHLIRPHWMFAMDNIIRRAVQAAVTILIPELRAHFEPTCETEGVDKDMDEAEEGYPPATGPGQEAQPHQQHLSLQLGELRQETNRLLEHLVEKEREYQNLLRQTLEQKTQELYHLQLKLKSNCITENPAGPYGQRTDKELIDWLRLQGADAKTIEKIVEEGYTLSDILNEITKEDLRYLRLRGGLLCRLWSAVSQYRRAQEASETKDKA
The note with it: MAP3K15; 1 μM; read-out: % control.

Test [2] addresses T2, panel of 468 kinases (Homo sapiens, UniProt P54762).
T2 construct: purchased KINOMEscan (ScanMAX) service
T2 sequence (P54762 18-984): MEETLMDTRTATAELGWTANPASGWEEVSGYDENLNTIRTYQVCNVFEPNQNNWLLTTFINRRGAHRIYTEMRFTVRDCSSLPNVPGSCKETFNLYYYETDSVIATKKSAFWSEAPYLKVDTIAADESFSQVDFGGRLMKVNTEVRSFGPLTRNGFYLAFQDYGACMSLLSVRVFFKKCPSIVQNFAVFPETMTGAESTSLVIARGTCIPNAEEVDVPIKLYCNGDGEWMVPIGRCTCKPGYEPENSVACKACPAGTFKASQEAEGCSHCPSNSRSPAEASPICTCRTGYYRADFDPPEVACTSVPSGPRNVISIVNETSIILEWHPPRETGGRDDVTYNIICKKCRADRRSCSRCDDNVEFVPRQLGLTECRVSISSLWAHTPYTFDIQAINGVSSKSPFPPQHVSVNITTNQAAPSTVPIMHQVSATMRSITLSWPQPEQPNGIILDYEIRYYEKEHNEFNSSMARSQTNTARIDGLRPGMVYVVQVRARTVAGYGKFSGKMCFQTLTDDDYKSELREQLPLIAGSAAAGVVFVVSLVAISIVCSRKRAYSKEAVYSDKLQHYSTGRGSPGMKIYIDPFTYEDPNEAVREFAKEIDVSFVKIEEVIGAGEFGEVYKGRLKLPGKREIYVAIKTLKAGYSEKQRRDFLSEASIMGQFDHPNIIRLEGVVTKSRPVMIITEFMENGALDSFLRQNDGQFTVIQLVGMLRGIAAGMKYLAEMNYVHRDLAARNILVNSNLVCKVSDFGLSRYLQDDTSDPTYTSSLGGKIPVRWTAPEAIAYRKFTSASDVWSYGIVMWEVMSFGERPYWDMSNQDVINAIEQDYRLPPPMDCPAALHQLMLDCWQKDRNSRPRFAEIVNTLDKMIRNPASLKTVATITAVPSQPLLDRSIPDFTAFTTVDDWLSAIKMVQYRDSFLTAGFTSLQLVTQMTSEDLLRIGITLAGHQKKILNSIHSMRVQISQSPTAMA
The note with it: EPHB1; 1 μM; read-out: % control.

Test [3] concerns the target T3, panel of 468 kinases (Homo sapiens, UniProt O94921).
T3 construct: purchased KINOMEscan (ScanMAX) service
The note with it: PFTK1; 1 μM; read-out: % control.

Test [4] concerns the target T4, panel of 468 kinases (Homo sapiens, UniProt P48729).
T4 construct: purchased KINOMEscan (ScanMAX) service
The note with it: CSNK1A1; 1 μM; read-out: % control.

Test [5] addresses T5, panel of 468 kinases (Homo sapiens, UniProt P45984).
T5 construct: purchased KINOMEscan (ScanMAX) service
The note with it: JNK2; 1 μM; read-out: % control.

The target in test [6] is T6, panel of 468 kinases (Homo sapiens, UniProt Q14289).
T6 construct: purchased KINOMEscan (ScanMAX) service
T6 sequence (Q14289 whole entry): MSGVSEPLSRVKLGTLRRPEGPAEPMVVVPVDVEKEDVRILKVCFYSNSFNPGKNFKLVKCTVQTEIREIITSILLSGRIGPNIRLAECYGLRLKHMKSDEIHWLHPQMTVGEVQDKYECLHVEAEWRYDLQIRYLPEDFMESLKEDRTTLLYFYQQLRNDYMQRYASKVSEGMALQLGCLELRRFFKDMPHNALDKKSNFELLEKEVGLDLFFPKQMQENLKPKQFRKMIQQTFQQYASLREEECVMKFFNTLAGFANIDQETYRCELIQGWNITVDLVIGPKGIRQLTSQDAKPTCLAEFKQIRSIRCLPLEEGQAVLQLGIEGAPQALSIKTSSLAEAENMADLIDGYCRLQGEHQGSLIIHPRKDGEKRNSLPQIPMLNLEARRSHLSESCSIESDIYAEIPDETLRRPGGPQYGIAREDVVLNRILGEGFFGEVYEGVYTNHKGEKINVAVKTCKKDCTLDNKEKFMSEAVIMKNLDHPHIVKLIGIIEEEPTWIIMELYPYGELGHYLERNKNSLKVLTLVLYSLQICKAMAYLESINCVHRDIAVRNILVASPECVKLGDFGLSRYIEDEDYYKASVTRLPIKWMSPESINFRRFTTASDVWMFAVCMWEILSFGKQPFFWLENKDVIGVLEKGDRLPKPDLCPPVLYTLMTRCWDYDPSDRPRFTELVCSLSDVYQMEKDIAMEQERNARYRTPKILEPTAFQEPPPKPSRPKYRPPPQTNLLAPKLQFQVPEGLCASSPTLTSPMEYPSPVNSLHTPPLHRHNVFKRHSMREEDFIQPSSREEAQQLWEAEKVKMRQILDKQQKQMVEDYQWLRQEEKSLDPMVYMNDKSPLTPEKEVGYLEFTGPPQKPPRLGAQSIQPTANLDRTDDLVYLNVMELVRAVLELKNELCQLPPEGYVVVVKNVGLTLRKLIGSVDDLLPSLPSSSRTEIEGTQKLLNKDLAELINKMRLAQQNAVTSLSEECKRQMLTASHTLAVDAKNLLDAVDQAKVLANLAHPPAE
The note with it: PYK2; 1 μM; read-out: % control.

In test [7] the target is T7, panel of 468 kinases (Homo sapiens, UniProt Q9P2K8, S808G).
T7 construct: purchased KINOMEscan (ScanMAX) service
T7 sequence (Q9P2K8 whole entry S808G): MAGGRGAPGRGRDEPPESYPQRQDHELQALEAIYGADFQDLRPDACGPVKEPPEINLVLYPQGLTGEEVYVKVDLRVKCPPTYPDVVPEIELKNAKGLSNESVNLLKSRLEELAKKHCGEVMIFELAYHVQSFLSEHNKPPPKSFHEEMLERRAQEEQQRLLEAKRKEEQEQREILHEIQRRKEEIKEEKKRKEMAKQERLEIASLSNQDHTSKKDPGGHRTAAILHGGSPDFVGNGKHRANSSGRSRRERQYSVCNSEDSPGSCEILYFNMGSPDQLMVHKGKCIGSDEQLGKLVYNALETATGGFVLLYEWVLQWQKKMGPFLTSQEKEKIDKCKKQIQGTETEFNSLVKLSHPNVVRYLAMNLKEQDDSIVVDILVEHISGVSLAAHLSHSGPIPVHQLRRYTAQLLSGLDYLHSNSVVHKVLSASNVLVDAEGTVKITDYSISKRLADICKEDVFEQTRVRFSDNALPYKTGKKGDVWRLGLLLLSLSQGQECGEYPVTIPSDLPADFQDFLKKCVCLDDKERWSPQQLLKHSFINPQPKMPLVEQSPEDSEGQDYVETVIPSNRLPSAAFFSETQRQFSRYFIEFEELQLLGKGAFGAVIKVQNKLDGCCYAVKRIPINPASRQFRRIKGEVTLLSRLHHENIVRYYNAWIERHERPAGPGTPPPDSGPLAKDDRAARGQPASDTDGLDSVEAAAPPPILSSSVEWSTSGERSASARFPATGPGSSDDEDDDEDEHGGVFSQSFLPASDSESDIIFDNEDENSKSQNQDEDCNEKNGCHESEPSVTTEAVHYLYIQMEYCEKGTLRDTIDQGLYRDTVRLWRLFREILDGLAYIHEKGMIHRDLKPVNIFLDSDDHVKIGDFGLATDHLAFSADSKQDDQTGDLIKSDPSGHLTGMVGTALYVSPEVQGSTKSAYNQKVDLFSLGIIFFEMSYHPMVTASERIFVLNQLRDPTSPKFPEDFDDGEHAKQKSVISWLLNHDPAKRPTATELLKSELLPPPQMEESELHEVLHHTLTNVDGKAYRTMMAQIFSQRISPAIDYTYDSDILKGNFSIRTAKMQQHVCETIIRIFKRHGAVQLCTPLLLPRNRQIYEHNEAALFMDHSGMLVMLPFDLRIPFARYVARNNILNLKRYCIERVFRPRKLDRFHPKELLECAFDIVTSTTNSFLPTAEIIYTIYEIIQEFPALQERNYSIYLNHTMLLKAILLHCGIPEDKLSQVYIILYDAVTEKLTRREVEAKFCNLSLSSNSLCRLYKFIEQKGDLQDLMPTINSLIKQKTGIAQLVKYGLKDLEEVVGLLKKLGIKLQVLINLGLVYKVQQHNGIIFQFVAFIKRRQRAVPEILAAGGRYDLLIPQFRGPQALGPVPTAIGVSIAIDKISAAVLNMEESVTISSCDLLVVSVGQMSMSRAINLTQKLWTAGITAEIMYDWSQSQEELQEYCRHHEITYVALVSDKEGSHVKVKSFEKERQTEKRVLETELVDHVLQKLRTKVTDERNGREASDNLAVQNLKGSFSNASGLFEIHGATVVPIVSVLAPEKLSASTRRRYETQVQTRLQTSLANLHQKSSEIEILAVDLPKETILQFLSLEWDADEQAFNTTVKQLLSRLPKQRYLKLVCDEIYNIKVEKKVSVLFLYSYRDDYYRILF
The note with it: GCN2(Kin.Dom.2,S808G); 1 μM; read-out: % control.

T3 sequence (O94921 whole entry): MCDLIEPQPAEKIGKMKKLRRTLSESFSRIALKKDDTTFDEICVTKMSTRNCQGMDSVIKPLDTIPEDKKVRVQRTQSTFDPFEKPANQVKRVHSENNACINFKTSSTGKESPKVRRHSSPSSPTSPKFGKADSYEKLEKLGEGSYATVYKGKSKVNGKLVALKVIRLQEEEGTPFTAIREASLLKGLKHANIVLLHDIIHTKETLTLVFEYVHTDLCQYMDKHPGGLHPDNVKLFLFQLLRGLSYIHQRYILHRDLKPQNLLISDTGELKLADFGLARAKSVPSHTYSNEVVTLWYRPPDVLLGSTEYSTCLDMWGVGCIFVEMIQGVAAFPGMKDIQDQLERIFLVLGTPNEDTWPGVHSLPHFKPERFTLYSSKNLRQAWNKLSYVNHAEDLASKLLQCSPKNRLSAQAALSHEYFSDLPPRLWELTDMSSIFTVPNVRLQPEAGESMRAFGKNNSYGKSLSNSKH
T4 sequence (P48729 whole entry): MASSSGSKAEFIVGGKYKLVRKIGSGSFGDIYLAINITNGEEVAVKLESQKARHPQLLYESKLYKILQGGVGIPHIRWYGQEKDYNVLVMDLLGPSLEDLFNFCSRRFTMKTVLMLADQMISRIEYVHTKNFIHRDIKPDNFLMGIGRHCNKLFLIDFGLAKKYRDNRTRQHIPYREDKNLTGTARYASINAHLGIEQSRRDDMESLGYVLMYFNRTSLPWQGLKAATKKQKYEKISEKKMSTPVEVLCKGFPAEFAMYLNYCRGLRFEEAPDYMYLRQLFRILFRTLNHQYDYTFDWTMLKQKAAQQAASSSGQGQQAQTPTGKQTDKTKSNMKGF
T5 sequence (P45984 whole entry): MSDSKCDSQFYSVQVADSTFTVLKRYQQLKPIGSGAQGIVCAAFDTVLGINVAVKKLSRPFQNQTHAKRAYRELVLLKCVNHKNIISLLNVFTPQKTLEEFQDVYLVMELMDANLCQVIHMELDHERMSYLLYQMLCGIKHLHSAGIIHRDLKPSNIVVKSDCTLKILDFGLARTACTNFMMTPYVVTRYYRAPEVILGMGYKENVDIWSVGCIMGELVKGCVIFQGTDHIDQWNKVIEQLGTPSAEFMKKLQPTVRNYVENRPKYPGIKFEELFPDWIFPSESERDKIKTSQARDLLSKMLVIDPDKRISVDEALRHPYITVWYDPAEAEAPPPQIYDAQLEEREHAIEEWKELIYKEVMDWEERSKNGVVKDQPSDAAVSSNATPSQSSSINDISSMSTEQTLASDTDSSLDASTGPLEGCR

For the compound `CNc1nc(Nc2ccc(S(=O)(=O)N3CCC(N4CCOCC4)CC3)cc2OC)nc2[nH]cc(Cl)c12` [Compound 12, 5-chloro-N2-(2-methoxy-4-((4-morpholinopiperidin-1-yl)sulfonyl)phenyl)-N4-methyl-7H-pyrrolo[2,3-d]pyrimidine-2,4-diamine], the remaining binding at 1 µM in test [1] amounted to 75%; in test [2], 88%; in test [3], 75%; in test [4], 48%; in test [5], 26%; in test [6] it was 35%. Moreover, in test [7], the remaining binding at 1 µM worked out at 88%.

Consider `CNc1nc(Nc2ccc(P3(=O)CCN(C4CCOCC4)CC3)cc2OC)nc2[nH]cc(Cl)c12` [Compound 77, 4-(4-((5-chloro-4-(methylamino)-7H-pyrrolo[2,3-d]pyrimidin-2-yl)amino)-3-methoxyphenyl)-1-(tetrahydro-2H-pyran-4-yl)-1,4-azaphosphinane 4-oxide], for which the remaining binding at 1 µM is 46% in test [1]; 100% in test [2]; 100% in test [3]; 27% in test [4]; 7.5% in test [5]; 27% in test [6]. In addition, the remaining binding at 1 µM in test [7] worked out at 78%.

For the compound `CNc1nc(Nc2ccc(C(=O)N3CCC(N4CCOCC4)CC3)c3c2OCO3)nc2[nH]cc(Cl)c12` [Compound 75, (7-((5-chloro-4-(methylamino)-7H-pyrrolo[2,3-d]pyrimidin-2-yl)amino)benzo[d][1,3]dioxol-4-yl)(4-morpholinopiperidin-1-yl)methanone], the remaining binding at 1 µM in test [1] came out at 39%; in test [2] it was 100%; in test [3] it was 91%; in test [4] it was 32%; in test [5], 0%; in test [6], 40%. Also, the remaining binding at 1 µM in test [7] came out at 31%.
